Assay: Pharmacokinetics and biodistribution in Balb/cJ mice, single IM dose
Settings: male, mouse, in vivo
Method: Male Balb/cJ mice (6–8 weeks of age; Jackson Labs, Bar Harbor, ME) were injected with NDTG or NMDTG (45 mg/kg DTG-eq.) intramuscularly (IM; caudal thigh muscle) in a volume of 40 µL/25 g mouse. For injections, NDTG and NMDTG were diluted to 28.1 mg DTG/mL in endotoxin-free water and 42.3 mg MDTG/mL in HEPES buffer, respectively. Twenty-five microliters of whole blood was collected by cheek puncture into 1 mL ACN at 1, 3, 7, 14, 21, 28, 35, 42, 49, and 56 days after drug administration. Animals were humanely euthanized using isoflurane followed by cervical dislocation at 28 and 56 days, and tissues (spleen, liver, lymph nodes, lungs, kidneys, gut-associated lymphoid tissue (GALT), and brain) were collected for drug quantitation. Drug concentration in whole blood and tissues was determined by UPLC-MS/MS using a Waters Acquity UPLC- Xevo TQ-S micro mass spectrometry system (Milford, MA). For blood analysis, 10 µL of internal standard (IS) solution was added to each sample. […] MDTG was quantified using a 7-min gradient of the same mobile phases at a flow rate of 0.35 mL/min. […] DTG and MDTG were detected at cone voltages of 10 V and 16 V and collision energies of 25 V and 44 V, respectively. […] Spectra were analyzed and quantified by MassLynx software version 4.1. Quantitation was based upon drug peak area to internal standard peak area ratios.

CCCCCCCCCCCCCC(=O)Oc1c2n(cc(C(=O)NCc3ccc(F)cc3F)c1=O)C[C@@H]1OCC[C@@H](C)N1C2=O [MDTG]
time prodrug was detectable in blood: ≤ 3 days

Reference: article PMC5799307, “Creation of a long-acting nanoformulated dolutegravir” (Nature Communications, 2018)
